Experimental data taken from patent US5629347A, “Aromatic compounds, pharmaceutical compositions containing them and their use in therapy” (Merck Sharp & Dohme Ltd., priority 1991, dated 1997).
Structures can show the parent of a compound that is named as a salt.

biological target: human NK1R (Homo sapiens, UniProt P25103); assay: biochemical; type: binding; details: 1 h; @ 1 μM; read-out: Substance P antagonism (%)
Protocol: To express the cloned human neurokinin-1-receotor (NK1R) transiently in COS, the cDNA for the human NK1R was cloned into the expression vector pCDM9 which was derived from pCDM8 (INVITROGEN) by inserting the ampicillin resistance gene (nucleotide 1973 to 2964 from BLUESCRIPT SK+ (trademark, […], La Jolla, Calif., U.S.A.)) into the Sac II site. Transfection of 20 ug of the plasmid DNA into 10 million COS cells was achieved by electroporation in 800 μl of transfection buffer (135 mM NaCl, 1.2 mM CaCl2, 1.2 mM MgCl2, 2.4 mM K2 HPO4, 0.6 mM KH2 PO4, 10 mM glucose, 10 mM N-2-hydroxyethyl-piperazine-N'-2-ethane sulphonic acid (HEPES) pH 7.4) at 260 V and 950 μF using the IBI GENEZAPPER (trademark IBI, New Haven, Conn., U.S.A.). The cells were incubated in 10% fetal calf serum, 2 mM glutamine, 100 U/ml penicillin-streptomycin, and 90% DMEM media (GIBCO, Grand Island, N.Y., U.S.A.) in 5% CO2 at 37° C. for three days before the binding assay.
To establish a stable cell line expressing cloned human NK1R, the cDNA was subcloned into the vector pRcCMV (INVITROGEN). Transfection of 20 ug of the plasmid DNA into CHO cells was achieved by electroporation in 800 μl of transfection buffer supplemented with 0.625 mg/ml Herring sperm DNA at 300 V and 950 μF using the IBI GENEZAPPER (IBI). The transfected cells were incubated. in CHO media [10% fetal calf serum, 100 U/ml penicillin-streptomycin, 2 mM glutamine, 1/500 hypoxanthinethymidine (ATCC), 90% IMDM media (JRH BIOSCIENCES, Lenexa, Kans., U.S.A.), 0.7 mg/ml G418 (GIBCO)] in 5% CO2 at 37° C. until colonies were visible. Each colony was separated and propagated. The cell clone with the highest number of human NK1R was selected for subsequent applications such as drug screening.
The binding assay of human NK1R expressed in either COS or CHO cells is based on the use of ^125 I-substance P (^125 I-SP, from DU PONT, Boston, Mass.) as a radioactively labeled ligand which competes with unlabeled substance P or any other ligand for binding to the human NK1R. […] The tubes were incubated at 4° C. or at room temperature for 1 hour with gentle shaking. The bound radioactivity was separated from unbound radioactivity by GF/C filter (BRANDEL, Gaithersburg, Md.) which was prewetted with 0.1% polyethylenimine. The filter was washed with 3 ml of wash buffer (50 mM Tris pH 7.5, 5 mM MnCl2, 150 mM NaCl) three times and its radioactivity was determined by gamma counter.

Chain of human NK1R (P25103 whole entry): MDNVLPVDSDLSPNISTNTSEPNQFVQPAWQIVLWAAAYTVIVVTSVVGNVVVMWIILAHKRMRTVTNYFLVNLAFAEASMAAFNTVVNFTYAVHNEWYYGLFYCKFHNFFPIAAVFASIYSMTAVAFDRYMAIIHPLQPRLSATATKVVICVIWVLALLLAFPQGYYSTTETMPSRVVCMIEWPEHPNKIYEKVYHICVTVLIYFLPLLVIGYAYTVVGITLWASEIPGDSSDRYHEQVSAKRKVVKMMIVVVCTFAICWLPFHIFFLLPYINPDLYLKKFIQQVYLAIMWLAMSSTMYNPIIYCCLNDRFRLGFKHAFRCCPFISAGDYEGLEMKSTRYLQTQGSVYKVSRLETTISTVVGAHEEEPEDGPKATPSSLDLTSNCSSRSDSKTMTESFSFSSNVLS

inhibition at 1 µM [%] | Structure (SMILES)
48 | N#Cc1cccc(COCC(N)C(c2ccccc2)c2ccccc2)c1 (stereo not shown) [Example 29, 2-Ammoninm-1-((3-cyanophenyl)methyloxy)-3,3-diphenylpropane oxalate salt]

same assay, conditions: 1 h; @ 10 μM; read-out: Substance P antagonism (%)

Structure (SMILES) | inhibition at 10 µM [%]
COc1ccccc1CNC(=O)C(NC(=O)OC(C)(C)C)C(c1ccccc1)c1ccccc1 (stereo not shown) [Example 3, 2-t-Butoxycarbonylamino-3,3-diphenylpropanoyl-(2-methoxyphenyl)methylamide] | 77

same assay, conditions: displacement of 125I-substance P; human NK1R in COS or CHO cells

Structure (SMILES) | IC50 [µM]
CN(C)C(=O)CNC(COCc1cc(C(F)(F)F)cc(C(F)(F)F)c1)C(c1ccccc1)c1ccccc1 (stereo not shown) [Example 48, N-(1-((3',5'-Bis(trifluoromethyl)phenyl)methyloxy)-3,3-diphenylprop-2-yl)glycine dimethylamide hydrochloride salt] | 0.01
NC(COCc1cc(Cl)cc(Cl)c1)C(c1ccccc1)c1ccccc1 (stereo not shown) [Example 18, 2-Ammouinm-1-((3,5-dichlorophenyl)methyloxy)-3,3-diphenylpropane tosylate salt] | 0.022
NC(=O)CNC(COCc1cc(C(F)(F)F)cc(C(F)(F)F)c1)C(c1ccccc1)c1ccccc1 (stereo not shown) [Example 30, 1-((3,5-Bis(trifluoromethyl)phenyl)methyloxy)-2-((carboxamido)methyl)ammoninm)-3,3-diphenylpropane oxalate salt] | 0.0004
Cc1cc(C)cc(COCC(C(c2ccccc2)c2ccccc2)N2CCOCC2)c1 (stereo not shown) [Example 15, 3,3-Diphenyl-1-((3,5-dimethylphenyl)methyloxy)-2-(4-morpholino)propane] | 0.1
CN(C)CC(=O)NC(COCc1cc(C(F)(F)F)cc(C(F)(F)F)c1)C(c1ccccc1)c1ccccc1 (stereo not shown) [Example 62, 2-(2-(Dimethylamino)acetamido)-1-((3,5-bis(trifluoromethyl)phenyl)methyloxy)-3,3-diphenylpropane] | 0.2
NC(C(=O)NCc1cc(C(F)(F)F)cc(C(F)(F)F)c1)C(c1ccccc1)c1ccccc1 (stereo not shown) [Example 67, 2-Amino-3,3-diphenyl-N-((3,5-bis(trifluoromethyl)phenyl)methyl)propionamide] | 0.22
Cc1cc(C)cc(COCC(NCC(N)=O)C(c2ccccc2)c2ccccc2)c1 (stereo not shown) [Example 21, 2-(((Carboxamido)methyl)amino)-1-((3,5-dimethylphenyl)methyloxy)-3,3-diphenylpropane] | 0.003
CN(CC(N)=O)C(COCc1cc(C(F)(F)F)cc(C(F)(F)F)c1)C(c1ccccc1)c1ccccc1 (stereo not shown) [Example 72, 1-((3,5-Bis(trifluoromethyl)phenyl)methyloxy)-2-(N-((carboxamido)methyl)-N-methyl)ammonium-3,3-diphenylpropane oxalate salt] | 0.007
N#CCNC(COCc1cc(C(F)(F)F)cc(C(F)(F)F)c1)C(c1ccccc1)c1ccccc1 (stereo not shown) [Example 34, 1-((3,5-Bis(trifluoromethyl)phenyl)methyloxy)-2-(cyanomethyl)amino-3,3-diphenylpropane] | 0.01
Cc1cc(C)cc(COCC(NCC(=O)NCC(N)=O)C(c2ccccc2)c2ccccc2)c1 (stereo not shown) [Example 46, N-(1-(((3',5'-Dimethyl)phenyl)methyloxy)-3,3-diphenylprop-2-yl)glycylglycine amide] | 0.004
NC(COCc1cccc(Cl)c1)C(c1ccccc1)c1ccccc1 (stereo not shown) [Example 19, 2-Ammonium-1-((3-chlorophenyl)methyloxy)-3,3-diphenylpropane tosylate salt] | 0.12
Cc1cc(C)cc(COCC(C(c2ccccc2)c2ccccc2)N(C)C(=O)c2ccccc2)c1 (stereo not shown) [Example 39, 2-(((N-Methyl)benzamido)-1-((3,5-dimethyl)phenyl)methyloxy)-3,3-diphenylpropane] | 0.8
Cc1cc(C)cc(COCC(NCC(=O)O)C(c2ccccc2)c2ccccc2)c1 (stereo not shown) [Example 45, N-(1-(((3',5'-Dimethyl)phenyl)methyloxy)-3,3-diphenylprop-2-yl)glycine] | 0.04
COC(=O)CCNC(COCc1cc(C(F)(F)F)cc(C(F)(F)F)c1)C(c1ccccc1)c1ccccc1 (stereo not shown) [Example 65, 1-((3,5-Bis(trifluoromethyl)phenyl)methyloxy)-2-(2-(carbomethoxy)ethylamino)-3,3-diphenylpropane] | 0.035
Cc1cc(C)cc(COC[C@H](C(c2ccccc2)c2ccccc2)N(C)C)c1 [Example 55, (S)-2-Dimethylammonium-1-((3,5-dimethylphenyl)methyloxy)-3,3-diphenylpropane Oxalate salt] | 0.002
Cc1cc(C)cc(COCC(N)C(c2ccccc2)c2ccccc2)c1 (stereo not shown) [Example 1, 2-Ammoninm-1-((3,5-dimethylphenyl)methyloxy)-3,3-diphenylpronane tosylate salt] | 0.0055
CC(=O)NC(COCc1cc(C)cc(C)c1)C(c1ccccc1)c1ccccc1 (stereo not shown) [Example 38, 2-Acetamido-1-(((3,5-dimethyl)phenyl)methyloxy)-3,3-diphenylpronane] | 0.07

Results, then the compound that gave them:

IC50 [µM] | Structure (SMILES)
0.16 | COc1cccc(C(Cc2ccccc2)C(N)COCc2cc(C(F)(F)F)cc(C(F)(F)F)c2)c1 (mixture of isomers) [70 (mixture of diastereomers), 2-Amino-1-((3,5-bis(trifluoromethyl)phenyl)methyloxy)-3-(3-methoxyphenyl)-4-phenylbutane]
0.1 | Cc1cc(C)cc(COCC(NCC2CC2)C(c2ccccc2)c2ccccc2)c1 (stereo not shown) [Example 9, 2-Cyclopropylmethylammonium-1-((3,5-dimethylphenyl)methyloxy)-3,3-diphenylpropane tosylate salt]
0.09 | CCCNC(COCc1cc(C)cc(C)c1)C(c1ccccc1)c1ccccc1 (stereo not shown) [Example 8, 2-Propylammonium-1-((3,5-dimethylphenyl)methyloxy)-3,3-diphenylpropane oxalate salt]
0.07 | C=CCNC(COCc1cc(C)cc(C)c1)C(c1ccccc1)c1ccccc1 (stereo not shown) [Example 10, 2-Allylammonium-1-((3,5-dimethylphenyl)methyloxy)-3,3-diphenylpropane oxalate salt]
0.04 | COC(=O)CNC(COCc1cc(C)cc(C)c1)C(c1ccccc1)c1ccccc1 (stereo not shown) [Example 20, 2-(N-(Carbomethoxymethyl)ammonium)-1-((3,5-dimethylphenyl)methyloxy)-3,3-diphenylpropane tosylate salt]
0.02 | Cc1cc(C)cc(COCC(C(c2ccccc2)c2ccccc2)N2CCCC2)c1 (stereo not shown) [Example 13, 3,3-Diphenyl-1-((3,5-dimethylphenyl)methyloxy)-2-(1-pyrrolidinium)propane tosylate salt]
0.007 | Cc1cc(C)cc(COCC(C(c2ccccc2)c2ccccc2)N(C)CC(N)=O)c1 (stereo not shown) [Example 36, 2-(N-((Carboxamido)methyl)-N-methyl)ammonium-1-((3,5-dimethylphenyl)methyloxy)-3,3-diphenyl propane oxalate salt]
0.002 | CNC(=O)CN(C)C(COCc1cc(C(F)(F)F)cc(C(F)(F)F)c1)C(c1ccccc1)c1ccccc1 (stereo not shown) [Example 54, 1-((3,5-Bis(trifluoromethyl)phenyl)methyloxy)-2-((N-((methylcarboxamido)methyl)-N-methyl)amino)-3,3-diphenylpropane monohydrate]
0.001 | COCCNC(=O)CNC(COCc1cc(C(F)(F)F)cc(C(F)(F)F)c1)C(c1ccccc1)c1ccccc1 (stereo not shown) [Example 51, N-(1-((3',5'-Bis(trifluoromethyl)phenyl)methyloxy)-3,3-diphenylprop-2-yl)glycine 2-methoxyethylamide]
0.0005 | CC(N[C@H](COCc1cc(C(F)(F)F)cc(C(F)(F)F)c1)C(c1ccccc1)c1ccccc1)C(N)=O (single isomer, unassigned) [58 (diastereomer B)]
0.0004 | CC(NC(COCc1cc(C(F)(F)F)cc(C(F)(F)F)c1)C(c1ccccc1)c1ccccc1)C(N)=O (single isomer, unassigned) [41 (diastereomer A), 1-((3',5'-Bis(trifluoromethyl)phenyl)methyloxy)-2-((1-(carboxamido)ethyl)ammonium)-3,3-diphenylpropane oxalate salt]
0.0004 | CC(N[C@H](COCc1cc(C(F)(F)F)cc(C(F)(F)F)c1)C(c1ccccc1)c1ccccc1)C(N)=O (single isomer, unassigned) [58 (diastereomer A)]
